Here are results for 30 molecules from patent publication US10377718B2, “Apelin receptor (APJ) agonists and uses thereof” (Research Triangle Institute, priority 2014, dated 2019).

The target in one test is T1, apelin receptor (APJ) (Homo sapiens, UniProt P35414).
T1 sequence (P35414 1-380): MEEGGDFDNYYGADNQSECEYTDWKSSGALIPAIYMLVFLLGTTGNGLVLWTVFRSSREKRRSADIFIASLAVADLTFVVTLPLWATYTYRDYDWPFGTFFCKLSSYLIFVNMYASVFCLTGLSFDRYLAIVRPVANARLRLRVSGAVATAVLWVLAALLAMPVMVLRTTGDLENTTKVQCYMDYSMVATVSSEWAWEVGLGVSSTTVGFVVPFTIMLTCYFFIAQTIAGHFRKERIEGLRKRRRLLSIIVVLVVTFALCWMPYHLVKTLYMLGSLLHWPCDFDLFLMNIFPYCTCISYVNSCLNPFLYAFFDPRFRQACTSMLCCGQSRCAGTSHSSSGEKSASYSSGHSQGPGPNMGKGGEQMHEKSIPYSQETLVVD
Description: in vitro apelin agonist activity (methods of Giddings et al., Apelin-13 as positive control). The class given is cell-based. An excerpt: The compounds above were studied for their in vitro activity as apelin agonists using the methods described by Giddings et al. Giddings et al., 2010 Int J High Thro Screen. 1:39-47, the contents of which are hereby incorporated by reference in its entirety.

For a further test, the system named is C57BL/6 mice. Description: in vivo blood pressure lowering activity, non-invasive blood pressure and heart rate after IP injection. The note with it: Apelin-13 at 0.4 nmol/kg. On the procedure: The compounds were also assayed for blood pressure activity using C57BL/6 mice and the procedure described by Tatemoto et al. The novel peptide apelin lowers blood pressure via a nitric oxide-dependent mechanism. Regul Pept. 2001; 99: 87-92. […] Studies have been published citing reductions in blood pressure occur following peptide apelin administration. Apelin-13 was used as a positive control. Knockout C57BL/6 mice lacking APJ have cardiovascular deficiencies. […] Charo et al. Am J Physiol Heart Circ Physiol. 2009 November 297(5):[…] et al. J Physiol Biochem. 2007 December; 63(4):359-73. Blood pressure measurements in these species of mice have been reported in the literature. […] et al. Am J Physiol Heart Circ Physiol. 2003 February; 284(2):[…]-74. On the first day of the study, 11 animals were treated with apelin-13, 11 with vehicle alone, and 11 as sham controls. The two later groups were used to determine effects (if any) of the vehicle or injection alone on blood pressure (BP). The experiment was conducted as follows: The animals were restrained and a baseline measurement taken for 5 min. Animals were injected and immediately monitored for 15 minutes. The effect of test agents should be apparent within this time. Tatemoto et al. reported that the effects of Apelin-13 were apparent within minutes. Tatemoto et al. 2001 Immediately following dosing, blood pressure (diastolic, systolic and mean pressure) and heart rate for each animal was recorded for up to 15 minutes using a Kent Scientific CODA Non-Invasive Blood Pressure System. […] On day 2-5 a similar protocol was used in increasing doses. The animals were randomized daily in three groups of 11 to receive either of the two experimental compounds by IP injection. […] At the end of the 5-day dosing period, all animals were humanely euthanized. [table]

Setting [1] is: apelin agonist activity, Giddings et al. method, read-out: agonist activity (EC50).

Like-named read-outs stand apart in the source and are kept apart here. Some results are limits rather than exact numbers.

For `COc1cccc(OC)c1-c1cc(C(=O)N[C@@H](CC(C)C)C(=O)O)nn1-c1ccc(F)cc1` [compound 34], the EC50 on apelin receptor (APJ) is below 10 µM.

Turning to `COc1cccc(OC)c1-c1cc(C(=O)N[C@H](CC(=O)O)CC(C)C)nn1-c1ccc(F)cc1` [compound 56, (S)-3-(5-(2,6-Dimethoxyphenyl)-1-(4-fluorophenyl)-1H-pyrazole-3-carboxamido)-5-methylhexanoic acid], the EC50 at apelin receptor (APJ) (setting [1]) is below 10 µM.

Turning to `COc1cccc(OC)c1-c1cc(C(=O)N[C@H](CC(N)=O)CC(C)C)nn1-c1ccc(F)cc1` [compound 65], the concentration giving a half-maximal response (EC50) on apelin receptor (APJ) (setting [1]) is below 10 µM.

For the molecule `COc1cccc(OC)c1-c1cc(C(=O)N[C@@H](CC(=O)O)CC(C)C)nn1-c1ccc(F)cc1` [compound 67], at apelin receptor (APJ) (setting [1]), the 50% effective concentration (EC50) is below 10 µM.

For `COc1cccc(OC)c1-c1cc(C(=O)N[C@H](C(=O)NCC(=O)O)C2CCCCC2)nn1-c1ccc(F)cc1` [compound 70], on apelin receptor (APJ), the EC50 was below 10 µM.

As for `COc1cccc(OC)c1-c1cc(C(=O)N[C@H](C(=O)O)C2CCCCC2)nn1-c1ccc(F)cc1` [compound 71, (S)-2-Cyclohexyl-2-(5-(2,6-dimethoxyphenyl)-1-(4-fluorophenyl)-1H-pyrazole-3-carboxamido)acetic acid], at apelin receptor (APJ) (setting [1]), the EC50 is below 10 µM.

Regarding `COc1cccc(OC)c1-c1cc(C(=O)N[C@H](CC(=O)NCC(=O)O)CC(C)C)nn1-c1ccc(F)cc1` [compound 77, (S)-2-(3-(5-(2,6-Dimethoxyphenyl)-1-(4-fluorophenyl)-1H-pyrazole-3-carboxamido)-5-methylhexanamido)acetic acid], at apelin receptor (APJ) (setting [1]), the concentration giving a half-maximal response (EC50) was below 10 µM.

For the molecule `COc1cccc(OC)c1-c1cc(C(=O)N[C@H](CC(=O)O)CC(C)C)nn1C1CCCCC1` [compound 79, (S)-3-(1-Cyclohexyl-5-(2,6-dimethoxyphenyl)-1H-pyrazole-3-carboxamido)-5-methylhexanoic acid], the EC50 at apelin receptor (APJ) (setting [1]) was below 10 µM.

Turning to `COc1cccc(OC)c1-c1cc(C(=O)N[C@H](CC(=O)NCC(=O)O)CC(C)C)nn1C1CCCCC1` [compound 81, (S)-2-(3-(1-Cyclohexyl-5-(2,6-dimethoxyphenyl)-1H-pyrazole-3-carboxamido)-5-methylhexanamido)acetic acid], the EC50 at apelin receptor (APJ) (setting [1]) is below 10 µM.

Turning to `COc1cccc(OCc2ccccc2)c1-c1cc(C(=O)N[C@H](CC(=O)O)CC(C)C)nn1-c1ccc(F)cc1` [compound 82, (3S)-3-(5-(2-(Benzyloxy)-6-methoxyphenyl)-1-(4-fluorophenyl)-1H-pyrazole-3-carboxamido)-5-methylhexanoic acid], the 50% effective concentration (EC50) at apelin receptor (APJ) (setting [1]) was below 10 µM.

As to `COC(=O)COc1cccc(OC)c1-c1cc(C(=O)N[C@H](CC(=O)O)CC(C)C)nn1-c1ccc(F)cc1` [compound 86], the concentration giving a half-maximal response (EC50) on apelin receptor (APJ) (setting [1]) is below 10 µM.

For the molecule `COc1cccc(OC)c1-c1cc(C(=O)N[C@H](C(=O)O)C2CCCCC2)nn1C1CCCCC1` [compound 93, (S)-2-Cyclohexyl-2-(1-cyclohexyl-5-(2,6-dimethoxyphenyl)-1H-pyrazole-3-carboxamido)acetic acid], the concentration for a half-maximal effect (EC50) at apelin receptor (APJ) is below 10 µM.

Take `COc1cccc(OC)c1-c1cc(C(=O)N[C@H](CC(=O)O)CC(C)C)nn1CC1CCCCC1` [compound 95, (S)-3-(1-(Cyclohexylmethyl)-5-(2,6-dimethoxyphenyl)-1H-pyrazole-3-carboxamido)-5-methylhexanoic acid]: at apelin receptor (APJ) (setting [1]), the EC50 was below 10 µM.

As for `COC(=O)CNC(=O)C[C@H](CC(C)C)NC(=O)c1cc(-c2c(OC)cccc2OC)n(C2CCCCC2)n1` [compound 103, (S)-Methyl 2-(3-(1-cyclohexyl-5-(2,6-dimethoxyphenyl)-1H-pyrazole-3-carboxamido)-5-methylhexanamido)acetate], on apelin receptor (APJ) (setting [1]), the concentration giving a half-maximal response (EC50) is below 10 µM.

`COc1cccc(OC)c1-c1cc(C(=O)N[C@H](CC(=O)O)CC(C)C)nn1CC(C)C` [compound 118]: on apelin receptor (APJ) (setting [1]), the EC50 was below 10 µM.

On to `COc1cccc(OCc2ccccc2)c1-c1cc(C(=O)N[C@H](CC(=O)O)CC(C)C)nn1C1CCCCC1` [compound 126, (3S)-3-(5-(2-(Benzyloxy)-6-methoxyphenyl)-1-cyclohexyl-1H-pyrazole-3-carboxamido)-5-methylhexanoic acid], for which, at apelin receptor (APJ) (setting [1]), the concentration for a half-maximal effect (EC50) was below 10 µM.

Take `COC(=O)CNC(=O)C[C@H](CC(C)C)NC(=O)c1cc(-c2c(OC)cccc2OCc2ccccc2)n(C2CCCCC2)n1` [compound 127, Methyl 2-((3S)-3-(5-(2-(benzyloxy)-6-methoxyphenyl)-1-cyclohexyl-1H-pyrazole-3-carboxamido)-5-methylhexanamido)acetate]: the EC50 on apelin receptor (APJ) (setting [1]) was below 10 µM.

Turning to `COc1cccc(OCc2ccccc2)c1-c1cc(C(=O)N[C@H](CC(=O)NCC(=O)O)CC(C)C)nn1C1CCCCC1` [compound 129, 2-((3S)-3-(5-(2-(Benzyloxy)-6-methoxyphenyl)-1-cyclohexyl-1H-pyrazole-3-carboxamido)-5-methylhexanamido)acetic acid], on apelin receptor (APJ) (setting [1]), the EC50 was below 10 µM.

Consider `COC(=O)CNC(=O)C[C@H](CC(C)C)NC(=O)c1cc(-c2c(OC)cccc2OC)n(CC(C)C)n1` [compound 130, (S)-Methyl 2-(3-(5-(2,6-dimethoxyphenyl)-1-isobutyl-1H-pyrazole-3-carboxamido)-5-methylhexanamido)acetate], for which the 50% effective concentration (EC50) on apelin receptor (APJ) (setting [1]) is below 10 µM.

`COc1cccc(OCc2ccccc2)c1-c1cc(C(=O)N[C@H](CC(=O)NCc2ccccc2)CC(C)C)nn1C1CCCCC1` [compound 132]: the EC50 on apelin receptor (APJ) (setting [1]) is below 10 µM.

As for `CCCCNC(=O)C[C@H](CC(C)C)NC(=O)c1cc(-c2c(OC)cccc2OCc2ccccc2)n(C2CCCCC2)n1` [compound 133, 5-(2-(Benzyloxy)-6-methoxyphenyl)-N-((S)-1-(butylamino)-5-methyl-1-oxohexan-3-yl)-1-cyclohexyl-1H-pyrazole-3-carboxamide], the half-maximal effective concentration (EC50) on apelin receptor (APJ) (setting [1]) is below 10 µM.

With `COc1cccc(OCc2ccccc2)c1-c1cc(C(=O)N[C@H](CC(=O)NCc2ncco2)CC(C)C)nn1C1CCCCC1` [compound 134, 5-(2-(Benzyloxy)-6-methoxyphenyl)-1-cyclohexyl-N-((S)-5-methyl-1-((oxazol-2-ylmethyl)amino)-1-oxohexan-3-yl)-1H-pyrazole-3-carboxamide], the EC50 on apelin receptor (APJ) (setting [1]) was below 10 µM.

With `COc1cccc(OCc2ccccc2)c1-c1cc(C(=O)N[C@H](CC(=O)NCC(=O)N(C)C)CC(C)C)nn1C1CCCCC1` [compound 136, 5-(2-(Benzyloxy)-6-methoxyphenyl)-1-cyclohexyl-N-((S)-1-((2-(dimethylamino)-2-oxoethyl)amino)-5-methyl-1-oxohexan-3-yl)-1H-pyrazole-3-carboxamide], the 50% effective concentration (EC50) on apelin receptor (APJ) (setting [1]) was below 10 µM.

For the molecule `COC(=O)CNC(=O)C[C@H](CC(C)C)NC(=O)c1cc(-c2c(OC)cccc2OC)n(-c2ccc(F)cc2)n1` [compound 137], on apelin receptor (APJ) (setting [1]), the EC50 is below 10 µM.

Regarding `CCOC(=O)CCNC(=O)C[C@H](CC(C)C)NC(=O)c1cc(-c2c(OC)cccc2OCc2ccccc2)n(C2CCCCC2)n1` [compound 138, Ethyl 3-((3S)-3-(5-(2-(benzyloxy)-6-methoxyphenyl)-1-cyclohexyl-1H-pyrazole-3-carboxamido)-5-methylhexanamido)propanoate], the EC50 on apelin receptor (APJ) (setting [1]) was below 10 µM.

As for `COc1cccc(OC)c1-c1cc(C(=O)N[C@H](CC(=O)NCc2ncco2)CC(C)C)nn1CC(C)C` [compound 140, (S)-5-(2,6-Dimethoxyphenyl)-1-isobutyl-N-(5-methyl-1-((oxazol-2-ylmethyl)amino)-1-oxohexan-3-yl)-1H-pyrazole-3-carboxamide], the 50% effective concentration (EC50) at apelin receptor (APJ) (setting [1]) is below 10 µM.

For the molecule `CNC(=O)C[C@H](CC(C)C)NC(=O)c1cc(-c2c(OC)cccc2OC)n(CC(C)C)n1` [compound 141, (S)-5-(2,6-Dimethoxyphenyl)-1-isobutyl-N-(5-methyl-1-(methylamino)-1-oxohexan-3-yl)-1H-pyrazole-3-carboxamide], the concentration for a half-maximal effect (EC50) on apelin receptor (APJ) (setting [1]) was below 10 µM.

In the case of `COc1cccc(OC)c1-c1cc(C(=O)N[C@H](CC(=O)NCCO)CC(C)C)nn1CC(C)C` [compound 142, (S)-5-(2,6-Dimethoxyphenyl)-N-(1-((2-hydroxyethyl)amino)-5-methyl-1-oxohexan-3-yl)-1-isobutyl-1H-pyrazole-3-carboxamide], the EC50 at apelin receptor (APJ) (setting [1]) is below 10 µM.

On to `CCCCNC(=O)C[C@@H](CC(C)C)NC(=O)c1cc(-c2c(OC)cccc2OC)n(CC(C)C)n1` [compound 153], for which, on apelin receptor (APJ) (setting [1]), the EC50 is below 10 µM.

As to Apelin-13 [reference compound], the “lowers blood pressure by” value in the test with C57BL/6 mice is given as around 10%.

The EC50 is the concentration that produces a half-maximal response.
